Here are results for 34 molecules from patent US11613531B2, “Inhibitors of RHO associated coiled-coil containing protein kinase” (Kadmon Corporation, LLC, priority 2017, dated 2023).

SMILES strings stand for the structures.

The assay has as its system ppMlc (T18/S19) levels in A7R5 cells. The assay can be described thus: A7R5 in-cell ELISA (pMLC). The settings on record: for inhibition at 1 µM / inhibition at 10 µM / IC50: Rattus norvegicus, A7R5, A7R5 cells; for inhibition at 1 µM: 1 μM compound; for inhibition at 1 µM / inhibition at 10 µM: read-out: pMLC % inh A7R5 @ [conc]; for IC50: ppMlc (T18/S19). The format is cell-based, Rat. Here is the method: Determination of Compounds ROCK Inhibitory Activity in A7R5Cells.
Rat aortic smooth muscle cell line, A7R5, cells were seeded with density of 5,000 cells/well in a 96-well plates for 24 hours and subsequently treated for 90 min with testing compounds. Cells were then fixed and processed according to the In-Cell ELISA Colorimetric Detection Kit manual (Thermo Scientific).
An A7R5 in-cell Elisa assay was performed. A7R5 cells were treated with 9 points 2 fold serial dilution of compounds and ppMlc (T18/S19) levels were determined to calculate cellular IC50 values of the compounds. Compounds of the invention gave in cell IC50s under 100 nM.
In vitro activities for the compounds were measured with Z′-lyte kinase kit (ThermoFisher Scientific). The percent inhibition rate was calculated by normalizing the kinase activity value obtained with 1 μM compound treatment against DMSO control value and then applied to the formula, [1-(compound/DMSO)]×100%. IC50s were calculated using the nonlinear regression curve fit function of the GraphPad Prism software with kinase activities data measured with 9 points 2-fold serial dilution of compounds treatment. In cell pMLC IC50s were calculated with data obtained from A7R5 cell experiments. A7R5 cells were treated with 9 points 2-fold serial dilution of compounds and ppMlc (T18/S19) levels were determined to calculate cellular IC50 values of the compounds using the nonlinear regression curve fit function of the GraphPad Prism software. NIH3T3 cells stably expressing ACTA2-promoter-driven-luciferase were applied to measure ROCK compounds functional IC50s in cells. Cells were plated in 96 well plates to confluence and treated with 9 points serial dilution of compounds in combination with TGFβ1 for 24 hr. Luciferase activities were measured and compound's IC50s were calculated using the nonlinear regression curve fit function of the GraphPad Prism software.
In general terms: ELISA stands for enzyme-linked immunosorbent assay.

As for `Fc1cnc(N2CCCC3(CCNC3)C2)nc1Nc1ccc2[nH]ncc2c1` (stereo not shown) [Example 162, N-(5-fluoro-2-(2,7-diazaspiro[4.5]decan-7-yl)pyrimidin-4-yl)-1H-indazol-5-amine], the inhibition at 1 µM is 16.7%.
With `Fc1cnc(N2CC3(CCNC3)C2)nc1Nc1ccc2[nH]ncc2c1` [Example 163, N-(5-fluoro-2-(2,6-diazaspiro[3.4]octan-2-yl)pyrimidin-4-yl)-1H-indazol-5-amine], the inhibition at 1 µM is -7.8%.
Turning to `Fc1cnc(N2CC3(CCNCC3)C2)nc1Nc1ccc2[nH]ncc2c1` [Example 164, N-(5-fluoro-2-(2,7-diazaspiro[3.5]nonan-2-yl)pyrimidin-4-yl)-1H-indazol-5-amine], the inhibition at 1 µM was -8.3%.
In the case of `Fc1cnc(N2CC3(CNC3)C2)nc1Nc1ccc2[nH]ncc2c1` [Example 165, N-(5-fluoro-2-(2,6-diazaspiro[3.3]heptan-2-yl)pyrimidin-4-yl)-1H-indazol-5-amine], the inhibition at 1 µM was -10.2%.
On the same count and under the same terms, the value for `Fc1cnc(N2CCC3NCCC3C2)nc1Nc1ccc2[nH]ncc2c1` (stereo not shown) [Example 168, N-(5-fluoro-2-(octahydro-5H-pyrrolo[3,2-c]pyridin-5-yl)pyrimidin-4-yl)-1H-indazol-5-amine] was 12.2%; that for `Fc1cnc(N2CCCC(C3CCCNC3)C2)nc1Nc1ccc2[nH]ncc2c1` (stereo not shown) [Example 171, N-(2-([3,3′-bipiperidin]-1-yl)-5-fluoropyrimidin-4-yl)-1H-indazol-5-amine] was -9.6%; that for `Fc1cnc(N2CCC(C3CNC3)C2)nc1Nc1ccc2[nH]ncc2c1` (stereo not shown) [Example 172, N-(2-(3-(azetidin-3-yl)pyrrolidin-1-yl)-5-fluoropyrimidin-4-yl)-1H-indazol-5-amine] was -9.9%.
With `CC(C)C1CN(c2ncc(Cl)c(Nc3ccc4[nH]ncc4c3)n2)CCCN1` (stereo not shown) [Example 181, N-(5-chloro-2-(3-isopropyl-1,4-diazepan-1-yl)pyrimidin-4-yl)-1H-indazol-5-amine], for the setting “10 μM compound”, the inhibition at 10 µM turned out to be 36.5%.
Consider `CC(C)C1CCN(c2ncc(Cl)c(Nc3ccc4[nH]ncc4c3)n2)CCN1` (stereo not shown) [Example 182, N-(5-chloro-2-(5-isopropyl-1,4-diazepan-1-yl)pyrimidin-4-yl)-1H-indazol-5-amine], for which, for the setting “10 μM compound”, the inhibition at 10 µM is 30.2%.
Consider `Clc1cnc(N2CCCNC(c3ccccc3)C2)nc1Nc1ccc2[nH]ncc2c1` (stereo not shown) [Example 183, N-(5-chloro-2-(3-phenyl-1,4-diazepan-1-yl)pyrimidin-4-yl)-1H-indazol-5-amine], for which, for the setting “10 μM compound”, the inhibition at 10 µM was 43.1%.
Consider `Clc1cnc(N2CCNC(c3ccccc3)CC2)nc1Nc1ccc2[nH]ncc2c1` (stereo not shown) [Example 184, N-(5-chloro-2-(5-phenyl-1,4-diazepan-1-yl)pyrimidin-4-yl)-1H-indazol-5-amine], for which the inhibition at 10 µM (10 μM compound) is 34.1%.
In the case of `c1ccc(C2CN(c3nccc(Nc4ccc5[nH]ncc5c4)n3)CCN2)cc1` (stereo not shown) [Example 224, N-(2-(3-phenylpiperazin-1-yl)pyrimidin-4-yl)-1H-indazol-5-amine], the IC50 amounted to 3350 nM. Besides, the inhibition at 10 µM (10 μM compound) worked out at 48%.
On to `CC1CN(c2nccc(Nc3ccc4[nH]ncc4c3)n2)CC(C)N1` (stereo not shown) [Example 226, N-(2-(3,5-dimethylpiperazin-1-yl)pyrimidin-4-yl)-1H-indazol-5-amine], for which the inhibition at 10 µM (10 μM compound) was determined as 67.7%.
For `CC1(C)CN(c2nccc(Nc3ccc4[nH]ncc4c3)n2)CCN1` [Example 227, N-(2-(3,3-dimethylpiperazin-1-yl)pyrimidin-4-yl)-1H-indazol-5-amine], where the note is “10 μM compound”, the inhibition at 10 µM worked out at 83.4%.
For `OCC1CNCCN1c1nccc(Nc2ccc3[nH]ncc3c2)n1` (stereo not shown) [Example 230, (1-(4-((1H-indazol-5-yl)amino)pyrimidin-2-yl)piperazin-2-yl)methanol], for the setting “10 μM compound”, the inhibition at 10 µM is 16.1%.
For `c1ccc(CC2CCNCCN2c2nc3c(c(Nc4ccc5[nH]ncc5c4)n2)COC3)cc1` (stereo not shown) [Example 236, 2-(7-benzyl-1,4-diazepan-1-yl)-N-(1H-indazol-5-yl)-5,7-dihydrofuro[3,4-d]pyrimidin-4-amine], the IC50 was 4690 nM. For the same molecule, the inhibition at 10 µM (10 μM compound) worked out at 80.8%.
Consider `CC1CN(c2nccc(Nc3ccc(-c4cn[nH]c4)cc3)n2)CCN1` (stereo not shown) [Example 252, N-(4-(1H-pyrazol-4-yl)phenyl)-2-(3-methylpiperazin-1-yl)pyrimidin-4-amine], for which the IC50 came to 1170 nM. Besides, the inhibition at 10 µM (10 μM compound) came to 65%.
As to `CC1CNCCN1c1nccc(Nc2ccc(-c3cn[nH]c3)cc2)n1` (stereo not shown) [Example 253, N-(4-(1H-pyrazol-4-yl)phenyl)-2-(2-methylpiperazin-1-yl)pyrimidin-4-amine], the inhibition at 10 µM (10 μM compound) stood at 41.5%.
In the case of `CC1(C)CN(c2nccc(Nc3ccc(-c4cn[nH]c4)cc3)n2)CCN1` [Example 255, N-(4-(1H-pyrazol-4-yl)phenyl)-2-(3,3-dimethylpiperazin-1-yl)pyrimidin-4-amine], the IC50 amounted to 1360 nM. Besides, the inhibition at 10 µM (10 μM compound) was 72%.
As for `CC1CN(c2nccc(Nc3ccc(-c4cn[nH]c4)cc3)n2)CC(C)N1` (stereo not shown) [Example 256, N-(4-(1H-pyrazol-4-yl)phenyl)-2-(3,5-dimethylpiperazin-1-yl)pyrimidin-4-amine], the IC50 is 1560 nM. For the same molecule, the inhibition at 10 µM (10 μM compound) came out at 84.5%.
The like results for `c1cc(Nc2ccc(-c3cn[nH]c3)cc2)nc(N2C3CCC2CNC3)n1` [Example 257, N-(4-(1H-pyrazol-4-yl)phenyl)-2-(3,8-diazabicyclo[3.2.1]octan-8-yl)pyrimidin-4-amine] were, in that order, 2070 nM and 85.6%.
For the molecule `c1cc(Nc2ccc(-c3cn[nH]c3)cc2)nc(N2CC3CCC(C2)N3)n1` [Example 258, N-(4-(1H-pyrazol-4-yl)phenyl)-2-(3,8-diazabicyclo[3.2.1]octan-3-yl)pyrimidin-4-amine], under “10 μM compound”, the inhibition at 10 µM was found to be 26%.
For `c1ccc(C2CN(c3nccc(Nc4ccc(-c5cn[nH]c5)cc4)n3)CCN2)cc1` (stereo not shown) [Example 260, N-(4-(1H-pyrazol-4-yl)phenyl)-2-(3-phenylpiperazin-1-yl)pyrimidin-4-amine], the inhibition at 10 µM (10 μM compound) came out at 18%.
With `c1cc(-c2cn[nH]c2)ccc1Nc1nc(N2CCCNCC2)nc2c1COC2` [Example 262, N-(4-(1H-pyrazol-4-yl)phenyl)-2-(1,4-diazepan-1-yl)-5,7-dihydrofuro[3,4-d]pyrimidin-4-amine], the IC50 stood at 3650 nM. Also, the inhibition at 10 µM (10 μM compound) came out at 87%.
Consider `Cc1nc(N2CCCNCC2)nc(Nc2ccc(-c3cn[nH]c3)cc2)c1C` [Example 266, N-(4-(1H-pyrazol-4-yl)phenyl)-2-(1,4-diazepan-1-yl)-5,6-dimethylpyrimidin-4-amine], for which the IC50 is 3150 nM. For the setting “10 μM compound”, the inhibition at 10 µM was 74%.
For the molecule `c1ccc2c(Nc3ccc(-c4cn[nH]c4)cc3)nc(N3CCCNCC3)nc2c1` [Example 268, N-(4-(1H-pyrazol-4-yl)phenyl)-2-(1,4-diazepan-1-yl)quinazolin-4-amine], the IC50 stood at 3720 nM. Moreover, the inhibition at 10 µM (10 μM compound) amounted to 63.7%.
As to `c1cc(Nc2ccnc(N3CCNCC3)n2)cc(-c2ccncc2)c1` [Example 345, 2-(piperazin-1-yl)-N-(3-(pyridin-4-yl)phenyl)pyrimidin-4-amine], the inhibition at 10 µM (10 μM compound) stood at 23.7%.
For the molecule `O=c1ccc(-c2ccc(Nc3ccnc(N4CCNCC4)n3)cc2)c[nH]1` [Example 349, 5-(4-((2-(piperazin-1-yl)pyrimidin-4-yl)amino)phenyl)pyridin-2(1H)-one], where the note is “10 μM compound”, the inhibition at 10 µM was 4.21%.
As to `Nc1nnc(-c2ccc(Nc3ccnc(N4CCNCC4)n3)cc2)o1` [Example 362, 5-(4-((2-(piperazin-1-yl)pyrimidin-4-yl)amino)phenyl)-1,3,4-oxadiazol-2-amine], where the note is “10 μM compound”, the inhibition at 10 µM amounted to 5.14%.
With `c1cc(Nc2ccc(-c3cncs3)cc2)nc(N2CCNCC2)n1` [Example 363], for the setting “A7R5 cells, 10 μM compound”, the “pMLC % inh A7R5 @ [conc]” value was 10.22%.
For the molecule `O=c1[nH]c2ccc(Nc3ccnc(N4CCNCC4)n3)cc2[nH]1` [Example 364, 5-((2-(piperazin-1-yl)pyrimidin-4-yl)amino)-1,3-dihydro-2H-benzo[d]imidazol-2-one], for the setting “10 μM compound”, the inhibition at 10 µM is 6.18%.
Regarding `c1cc(Nc2ccc(-c3ccnc4[nH]cnc34)cc2)nc(N2CCNCC2)n1` [Example 366, N-(4-(3H-imidazo[4,5-b]pyridin-7-yl)phenyl)-2-(piperazin-1-yl)pyrimidin-4-amine], the inhibition at 10 µM (10 μM compound) came to 4.95%.
Still for that read-out and setting: the value for `c1cc(Nc2ccc(-c3nnco3)cc2)nc(N2CCNCC2)n1` [Example 367, N-(4-(1,3,4-oxadiazol-2-yl)phenyl)-2-(piperazin-1-yl)pyrimidin-4-amine] was 7.2%.
On the same count and under the same terms, for `c1cc(Nc2cnc3[nH]ccc3c2)nc(N2CCNCC2)n1` [Example 369, N-(2-(piperazin-1-yl)pyrimidin-4-yl)-1H-pyrrolo[2,3-b]pyridin-5-amine] the value was 0.9%.

By IC50 is commonly meant the concentration at which inhibition is half-maximal.
